# Reference: US20190367516A1 (Bayer Pharma Aktiengesellschaft, priority 2015, published 2019)
# Target: T1, human M2 receptor (Homo sapiens, UniProt P08172)
# T1 sequence (P08172 1-466): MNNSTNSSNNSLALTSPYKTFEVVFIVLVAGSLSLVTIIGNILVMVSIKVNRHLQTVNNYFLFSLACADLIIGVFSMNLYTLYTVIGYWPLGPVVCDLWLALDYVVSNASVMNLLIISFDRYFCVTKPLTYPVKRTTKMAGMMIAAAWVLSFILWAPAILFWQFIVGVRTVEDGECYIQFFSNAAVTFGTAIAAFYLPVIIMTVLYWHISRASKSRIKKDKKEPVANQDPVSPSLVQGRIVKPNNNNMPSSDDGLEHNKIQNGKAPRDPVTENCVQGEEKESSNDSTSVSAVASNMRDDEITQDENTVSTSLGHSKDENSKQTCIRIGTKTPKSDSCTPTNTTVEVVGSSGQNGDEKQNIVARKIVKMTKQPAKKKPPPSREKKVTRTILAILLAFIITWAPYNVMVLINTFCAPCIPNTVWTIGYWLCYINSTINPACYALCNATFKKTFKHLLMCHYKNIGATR
# Details: M2-GIRK1/4 reporter cells; for EC50: Receptor activity EC50, allosteric potency at EC20 acetylcholine, in some cases mean of two or more determinations; for Emax: read-out: Efficiency, boosting of the acetylcholine effect at EC20 acetylcholine concentration
SMILES,EC50 [nM],Emax [%]
"O=C(N[C@@H](C1CC1)C(F)(F)F)c1cn(-c2c(F)cc(F)cc2F)c2nc(N3CC[C@H](O)C3=O)ccc2c1=O [Example 467, N-[(1 S)-1-Cyclopropyl-2,2,2-trifluoroethyl]-7-[(3S)-3-hydroxy-2-oxopyrrolidin-1-yl]-4-oxo-1-(2,4,6-trifluorophenyl)-1,4-dihydro-1,8-naphthyridine-3-carboxamide]",42,97.5
"O=C(N[C@@H](C1CC1)C(F)(F)F)c1cn(-c2c(F)cc(F)cc2F)c2nc(N3CCC(CO)C3=O)ccc2c1=O (some centres unmarked) [Example 468, N-[(1 S)-1-Cyclopropyl-2,2,2-trifluoroethyl]-7-[3-(hydroxymethyl)-2-oxopyrrolidin-1-yl]-4-oxo-1-(2,4,6-trifluorophenyl)-1,4-dihydro-1,8-naphthyridine-3-carboxamide]",23,98.5
"CC(C)(C)NC(=O)c1cn(-c2c(F)cc(F)cc2F)c2nc(N3C[C@@H](O)[C@H](O)C3)ccc2c1=O [Example 479, N-tert-Butyl-7-[(3R,4R)-3,4-dihydroxypyrrolidin-1-yl]-4-oxo-1-(2,4,6-trifluorophenyl)-1,4-dihydro-1,8-naphthyridine-3-carboxamide]",38,100
CN1CCN(c2ccc3c(=O)c(C(=O)N[C@@H](C4CC4)C(F)(F)F)cn(-c4c(F)cc(F)cc4F)c3n2)CC1 [Example 490],103,91.5
CN(C[C@H](O)CO)c1ccc2c(=O)c(C(=O)N[C@@H](C3CC3)C(F)(F)F)cn(-c3c(F)cc(F)cc3F)c2n1 [Example 491],106,85.5
O=C(N[C@@H](C1CC1)C(F)(F)F)c1cn(-c2c(F)cc(F)cc2F)c2nc(N3CC4(COC4)C3)ccc2c1=O [Example 492],44,97.5
CC[C@H](NC(=O)c1cn(-c2c(F)cc(F)cc2F)c2nc(N(C)C[C@@H](C)O)ccc2c1=O)C(F)(F)F [Example 495],31,99.5
CC[C@H](NC(=O)c1cn(-c2c(F)cc(F)cc2F)c2nc(N3CCN(C)CC3)ccc2c1=O)C(F)(F)F [Example 496],67,89
CC[C@H](NC(=O)c1cn(-c2c(F)cc(F)cc2F)c2nc(N(C)C[C@H](C)O)ccc2c1=O)C(F)(F)F [Example 497],29,92
CC[C@H](NC(=O)c1cn(-c2c(F)cc(F)cc2F)c2nc(N3CC4(COC4)C3)ccc2c1=O)C(F)(F)F [Example 498],60,83.5
CC[C@H](NC(=O)c1cn(-c2c(F)cc(F)cc2F)c2nc(NC(C)(C)C)ccc2c1=O)C(F)(F)F [Example 499],63,96
CC[C@H](NC(=O)c1cn(-c2c(F)cc(F)cc2F)c2nc(N3CCC(CO)(CO)CC3)ccc2c1=O)C(F)(F)F [Example 500],76,100
CC[C@H](NC(=O)c1cn(-c2c(F)cc(F)cc2F)c2nc(N3CC(F)C3)ccc2c1=O)C(F)(F)F [Example 501],58,98
"O=C(N[C@@H](C1CC1)C(F)(F)F)c1cn(-c2c(F)cc(F)cc2F)c2nc(N3CC(CO)(CO)C3)ccc2c1=O [Example 502, 7-[3,3-Bis(hydroxymethyl)azetidin-1-yl]-N-[(1S)-1-cyclopropyl-2,2,2-trifluoroethyl]-4-oxo-1-(2,4,6-trifluorophenyl)-1,4-dihydro-1,8-naphthyridine-3-carboxamide]",30,91
"O=C(NC(CC(F)(F)F)C(F)(F)F)c1cn(-c2c(F)cc(F)cc2F)c2nc(N3C[C@@H](O)[C@H](O)C3)ccc2c1=O (stereo partly drawn) [Example 545, 7-[(3R,4R)-3,4-Dihydroxypyrrolidin-1-yl]-N-[1,1,1,4,4,4-hexafluorobutan-2-yl]-4-oxo-1-(2,4,6-trifluorophenyl)-1,4-dihydro-1,8-naphthyridine-3-carboxamide]",8,99

# The remaining lines, values ahead:
EC50 [nM],Emax [%],SMILES
20,100,"CC(C)(C)NC(=O)c1cn(-c2c(F)cc(F)cc2F)c2nc(N3C[C@@H](O)CC3=O)ccc2c1=O [Example 469, N-tert-Butyl-7-[(4S)-4-hydroxy-2-oxopyrrolidin-1-yl]-4-oxo-1-(2,4,6-trifluorophenyl)-1,4-dihydro-1,8-naphthyridine-3-carboxamide]"
104,98.5,"C[C@@H](NC(=O)c1cn(-c2c(F)cc(F)cc2F)c2nc(N3C[C@@H](O)[C@H](O)C3)ccc2c1=O)C1CC1 [Example 470, N-[(1R)-1-Cyclopropylethyl]-7-[(3R,4R)-3,4-dihydroxypyrrolidin-1-yl]-4-oxo-1-(2,4,6-trifluorophenyl)-1,4-dihydro-1,8-naphthyridine-3-carboxamide]"
29,90,"CC(C)[C@H](C)NC(=O)c1cn(-c2c(F)cc(F)cc2F)c2nc(N3C[C@@H](O)[C@H](O)C3)ccc2c1=O [Example 472, 7-[(3R,4R)-3,4-Dihydroxypyrrolidin-1-yl]-N-[(2S)-3-methylbutan-2-yl]-4-oxo-1-(2,4,6-trifluorophenyl)-1,4-dihydro-1,8-naphthyridine-3-carboxamide]"
31,100,"CC(C)[C@@H](C)NC(=O)c1cn(-c2c(F)cc(F)cc2F)c2nc(N3C[C@@H](O)CC3=O)ccc2c1=O [Example 473, 7-[(4S)-4-Hydroxy-2-oxopyrrolidin-1-yl]-N-[(2R)-3-methylbutan-2-yl]-4-oxo-1-(2,4,6-trifluorophenyl)-1,4-dihydro-1,8-naphthyridine-3-carboxamide]"
73,89,"C[C@H](NC(=O)c1cn(-c2c(F)cc(F)cc2F)c2nc(N3C[C@@H](O)[C@H](O)C3)ccc2c1=O)C1CC1 [Example 477, N-[(1 S)-1-Cyclopropylethyl]-7-[(3R,4R)-3,4-dihydroxypyrrolidin-1-yl]-4-oxo-1-(2,4,6-trifluorophenyl)-1,4-dihydro-1,8-naphthyridine-3-carboxamide]"
24,100,"C[C@H](NC(=O)c1cn(-c2c(F)cc(F)cc2F)c2nc(N3C[C@@H](O)CC3=O)ccc2c1=O)C1CC1 [Example 478, N-[(1 S)-1-Cyclopropylethyl]-7-[(4S)-4-hydroxy-2-oxopyrrolidin-1-yl]-4-oxo-1-(2,4,6-trifluorophenyl)-1,4-dihydro-1,8-naphthyridine-3-carboxamide]"
46,100,"C[C@@H](NC(=O)c1cn(-c2c(F)cc(F)cc2F)c2nc(N3C[C@@H](O)CC3=O)ccc2c1=O)C1CC1 [Example 480, N-[(1R)-1-Cyclopropylethyl]-7-[(4S)-4-hydroxy-2-oxopyrrolidin-1-yl]-4-oxo-1-(2,4,6-trifluorophenyl)-1,4-dihydro-1,8-naphthyridine-3-carboxamide]"
10,100,"CC(C)(NC(=O)c1cn(-c2c(F)cc(F)cc2F)c2nc(N3C[C@@H](O)CC3=O)ccc2c1=O)C1CC1 [Example 481, N-(2-Cyclopropylpropan-2-yl)-7-[(4S)-4-hydroxy-2-oxopyrrolidin-1-yl]-4-oxo-1-(2,4,6-trifluorophenyl)-1,4-dihydro-1,8-naphthyridine-3-carboxamide]"
54,92.5,"CC(C)[C@@H](C)NC(=O)c1cn(-c2c(F)cc(F)cc2F)c2nc(N3C[C@@H](O)[C@H](O)C3)ccc2c1=O [Example 483, 7-[(3R,4R)-3,4-Dihydroxypyrrolidin-1-yl]-N-[(2R)-3-methylbutan-2-yl]-4-oxo-1-(2,4,6-trifluorophenyl)-1,4-dihydro-1,8-naphthyridine-3-carboxamide]"
85,88.5,"CC[C@H](NC(=O)c1cn(-c2c(F)cc(F)cc2F)c2nc(N3C[C@@H](NC(C)=O)CC3=O)ccc2c1=O)C(F)(F)F [Example 517, 7-[(4S)-4-Acetamido-2-oxopyrrolidin-1-yl]-4-oxo-N-[(2S)-1,1,1-trifluorobutan-2-yl]-1-(2,4,6-trifluorophenyl)-1,4-dihydro-1,8-naphthyridine-3-carboxamide]"
470,99.5,"CC[C@H](NC(=O)c1cn(-c2c(F)cc(F)cc2F)c2nc(N3CC(CNC(C)=O)CC3=O)ccc2c1=O)C(F)(F)F (stereo partly drawn) [Example 518, 7-[4-(Acetamidomethyl)-2-oxopyrrolidin-1-yl]-4-oxo-N-[(2S)-1,1,1-trifluorobutan-2-yl]-1-(2,4,6-trifluorophenyl)-1,4-dihydro-1,8-naphthyridine-3-carboxamide]"
5,100,"CC(C)C[C@H](NC(=O)c1cn(-c2c(F)cc(F)cc2F)c2nc(N3C[C@@H](O)CC3=O)ccc2c1=O)C(F)(F)F [Example 525, 7-[(4S)-4-Hydroxy-2-oxopyrrolidin-1-yl]-oxo-N-[(2S)-1,1,1-trifluoro-4-methylpentan-2-yl]-1-(2,4,6-trifluorophenyl)-1,4-dihydro-1,8-naphthyridine-3-carboxamide]"
8,98,"CC(C)C[C@@H](NC(=O)c1cn(-c2c(F)cc(F)cc2F)c2nc(N3C[C@@H](O)[C@H](O)C3)ccc2c1=O)C(F)(F)F [Example 544, 7-[(3R,4R)-3,4-Dihydroxypyrrolidin-1-yl]-4-oxo-N-[(2R)-1,1,1-trifluoro-4-methylpentan-2-yl]-1-(2,4,6-trifluorophenyl)-1,4-dihydro-1,8-naphthyridine-3-carboxamide]"
